What was measured:
[1] = DTI (dye transfer inhibition) test, white cotton in wash liquor with dissolved test dye; settings: complex 20 μmol/l wash liquor, 8.6 mmol/l H2O2, 40° C., 30 min; for DTI effect a(%) Dye 1: Direct Brown 172 10 mg/l of the 250% formulation; for DTI effect a(%) Dye 2: Reactive Blue 238 6 mg/l of the 100% formulation
Description: The catalysts were tested for DTI activity. The DTI (dye transfer inhibition) effect a is defined as the following percentage:
a=([Y(E)−Y(A)]/[Y(W)−Y(A)])*100
where Y(W), Y(A) and Y(E) are the CIE lightnesses of the white material, of the material treated without added catalyst and of the material treated with added catalyst, in that order. a=0 characterizes a product of nil utility, the inclusion of which in the wash liquor does nothing to impede dye transfer. a=100%, by contrast, defines a perfect catalyst, which completely suppresses the tainting of the white material.
The test data are determined using the following testing system: 7.5 g of white cotton are treated in 80 ml of wash liquor. This liquor contains the standard detergent ECE phosphate-free (456 IEC) EMPA, Switzerland, in a concentration of 7.5g/l, 8.6 mmol/l H2O2, and a solution of the test dye. The washing process is carried out in a pot in a LINITEST apparatus at 40° C. for 30 min. Commercially available Direct Brown 172 (dye 1) at 10 mg/l of the 250% formulation or Reactive Blue 238 (dye 2) at 6 mg/l of the 100% formulation were used as test dyes. The reflectants spectra of the samples were measured with a SPECTRAFLASH 2000 and transformed into D65/10 lightnesses by the CIE standard procedure.
The manganese complexes are synthesized either as described in Example 13 or in situ by adding the corresponding manganese(III) salt in ethanolic solution. The complexes are always used at 20 μmol/l wash liquor. It is evident from the table that the recited catalysts are very effective DTI catalysts. […]

[2] = Bleach test, tea stain on cotton fabric; settings: 100 μmol/l ligand; 8.6 mmol/l hydrogen peroxide; 40° C., 30 minutes; H2O2 only gives 18
Description: The bleach tests are carried out as follows: 7.5 g of white cotton fabric and 2.5 g of a tea stain on cotton fabric are treated in 80 ml of wash liquor. This liquor contains the standard laundry detergent ECE phosphate-free (456 IEC) EMPA, Switzerland in a concentration of 7.5 g/l, hydrogen peroxides in a concentration of 8.6 mmol/l and optionally 100 μmol/l of one of the ligands according to the invention. The washing process takes place in a steel pot in a LINITEST apparatus at 40° C. for 30 minutes. The bleaching results are evaluated using the increase in lightness DY (lightness difference as per CIE) of the stain due to the treatment.

| SMILES | DTI effect a(%) Dye 1 [1] [%] | DTI effect a(%) Dye 2 [1] [%] | DY with H2O2 and ligand (increase in lightness of the stain) [2] |
| --- | --- | --- | --- |
| Oc1ccccc1/C=N\CCN(CC/N=C/c1ccccc1O)CC/N=C/c1ccccc1O [Example 1, N,N′,N″-Tris[salicylideneaminoethyl]amine] | 91 | 96 |  |
| CCN(CC)c1ccc(C=NCCN(CCN=Cc2ccc(N(CC)CC)cc2O)CC/N=C/c2ccc(N(CC)CC)cc2O)c(O)c1 [Example 2, N,N′,N″-Tris[4-N-diethylaminosalicylideneaminoethyl]amine] | 78 | 73 | 21 |
| CN(C)c1ccc(/C=N\CCN(CC/N=C/c2ccc(N(C)C)cc2O)CC/N=C/c2ccc(N(C)C)cc2O)c(O)c1 [Example 3, N,N′,N″-Tris[4-N-dimethylaminosalicylideneaminoethyl]amine] | 85 | 80 | 22 |
| COc1ccc(/C=N\CCN(CC/N=C/c2ccc(OC)cc2O)CC/N=C/c2ccc(OC)cc2O)c(O)c1 [Example 4, N,N′,N″-Tris[4-methoxysalicylideneaminoethyl]amine] | 83 | 67 |  |
| Oc1ccc(/C=N\CCN(CC/N=C/c2ccc(O)cc2O)CC/N=C/c2ccc(O)cc2O)c(O)c1 [Example 5, N,N′,N″-Tris[4-hydroxysalicylideneaminoethyl]amine] | 78 | 27 |  |
| O=[N+]([O-])c1ccc(O)c(C=NCCN(CCN=Cc2cc([N+](=O)[O-])ccc2O)CC/N=C/c2cc([N+](=O)[O-])ccc2O)c1 [Example 6, N,N′, N″-Tris[5-nitrosalicylideneaminoethyl]amine] | 70 | 80 |  |
| CC(C)N(C)c1ccc(C=NCCN(CCN=Cc2ccc(N(C)C(C)C)cc2O)CC/N=C/c2ccc(N(C)C(C)C)cc2O)c(O)c1 [Example 7, N,N′,N″-Tris[(4-N-methyl-N-isopropylamino)salicylideneaminoethyl]amine] | 84 | 83 | 21 |
| CCN(C)c1ccc(C=NCCN(CCN=Cc2ccc(N(C)CC)cc2O)CC/N=C/c2ccc(N(C)CC)cc2O)c(O)c1 [Example 8, N,N′,N″-Tris[(4-N-methyl-N-ethylamino)salicylideneaminoethyl]amine] | 85 | 81 | 22 |
| Cc1ccc(C=NCCN(CCN=Cc2ccc(C)cc2O)CC/N=C/c2ccc(C)cc2O)c(O)c1 [Example 9, N,N′,N″-Tris[4-methylsalicylideneaminoethyl]amine] | 87 | 94 |  |
| C[N+](C)(C)c1ccc(C=NCCN(CCN=Cc2ccc([N+](C)(C)C)cc2O)CC/N=C/c2ccc([N+](C)(C)C)cc2O)c(O)c1.[Br-].[Br-].[Br-] [Example 10, N,N′, N″-Tris[4-trimethylammoniosalicylideneaminoethyl]amine tribromide] | 90 | 96 |  |
| C[N+](C)(C)c1ccc(O)c(C=NCCN(CCN=Cc2cc([N+](C)(C)C)ccc2O)CC/N=C/c2cc([N+](C)(C)C)ccc2O)c1.[Br-].[Br-].[Br-] [Example 11, N,N′,N″-Tris[5-trimethylammoniosalicylideneaminoethyl]amine tribromide] | 86 | 94 |  |
| O=S(=O)([O-])c1ccc(O)c(C=NCCN(CCN=Cc2cc(S(=O)(=O)[O-])ccc2O)CC/N=C/c2cc(S(=O)(=O)[O-])ccc2O)c1.[Na+].[Na+].[Na+] [Example 12, N,N′,N″-Tris[5-sulfonatosalicylideneaminoethyl]amine, trisodium salt] | 80 | 99 |  |
